# Results reported in patent US8092816B2, “Insecticidal compositions for control of general household pests” (priority 2004, dated 2012).
# Columns and labels:
# House Flies = experiment: Example 17: house fly knockdown and mortality, bifenthrin and clothianidin; assay type: in vivo
# Source text: (§1) The following examples further illustrate the present invention, but, of course, should not be construed as in any way limiting its scope. The examples set forth certain biological data illustrating the efficacy of the compositions of the present invention in controlling general household pests. Each example embodies a separate test wherein the pests were randomly selected from a population at a random age. As a result, from example to example, the ages of the pests can be very different. This age difference potentially translates to different baselines for each example. Therefore, data should only be compared within the example and not from example to example due to the differences in age of the pests from example to example. Unless otherwise indicated, all parts, percentages, and the like are by weight. The spray chamber used in the examples was approximately 76 inches tall, 73 inches long and 31 inches deep with an adjustable shelf (approximately 22 inches deep) and a movable spray nozzle. The spray chambers were calibrated to deliver a volume of approximately 1 gallon of liquid per 1000 square feet of area at about 14 pounds per square inch of pressure. A DeVilbiss hand held sprayer (Atomizer model 152) manufactured by DeVilbiss located in Glendale Heights, Ill. was used in testing house flies and mosquitoes. The DeVilbiss was used to apply approximately 3-5 milliliters of product at about 10 pounds per square inch.
# The compositions of the present invention were tested for house fly activity in the following manner:
# (§2) Test compositions made up of TALSTARONE® MULTI-INSECTICIDE and a 16% a.i. water dispersible granular of clothianidin in distilled water were prepared that provided appropriate rates of application of combinations of bifenthrin and clothianidin, as well as bifenthrin and clothianidin alone.
# A DeVilbiss hand held sprayer was used to deliver the treatment solution at the desired volume and pressure. The house flies to be treated were collected and placed in screened 16 oz paper cups. The hand held sprayer was activated and the test compound was applied to each paper cup interior. House fly knockdown and mortality were measured.
# American cockroach [1] = experiment: Example 9: American cockroach knockdown and mortality, bifenthrin and thiamethoxam; assay type: in vivo
# Source text: as §1
# (§3) The compositions of the present invention were tested for American cockroach activity in the following manner:
# (§4) Test compositions made up of TALSTARONE® MULTI-INSECTICIDE and a water dispersible granular of thiamethoxam (CENTRIC) in distilled water were prepared that provided appropriate rates of application of combinations of bifenthrin and thiamethoxam, as well as bifenthrin and thiamethoxam alone.
# (§5) The spray chamber was then calibrated to deliver the treatment solution at the desired volume and pressure over the desired area on the chamber shelf. Spray chamber shelf height was adjusted to approximately 18 inches from the spray tip. The shelf was then covered with aluminum foil and the center of the shelf from front-to-back and end-to-end was determined. A desired number of 4.0″ sieve circles were marked on the aluminum foil with a permanent marker. The inside of a desired number of PVC rings were coated with a petroleum jelly/mineral oil mixture (1:2 ratio). The PVC rings were place on the sieve circles. 10 male American cockroaches were placed inside each PVC ring. The sprayer was activated and the test compound was applied to each PVC ring interior. American cockroach knockdown and mortality were measured.
# Red Imported Fire Ant = experiment: Example 16: red imported fire ant knockdown and mortality, bifenthrin and clothianidin; assay type: in vivo, Solenopsis invicta
# Source text: as §1
# The compositions of the present invention were tested for red imported fire ant activity in the following manner:
# as §2
# The spray chamber was then calibrated to deliver the treatment solution at the desired volume and pressure over the desired area on the chamber shelf. Spray chamber shelf height was adjusted to approximately 18 inches from the spray tip. The shelf was then covered with aluminum foil and the center of the shelf from front-to-back and end-to-end was determined. The red imported fire ants to be treated were collected and placed in screened 16 oz paper cups. The paper cups were placed onto the aluminum foil on the spray chamber shelf. The sprayer was activated and the test compound was applied to each paper cup interior. Red imported fire ant knockdown and mortality were measured.
# German cockroach = experiment: Example 8: German cockroach mortality, bifenthrin and thiamethoxam; assay type: in vivo
# Source text: as §1
# The compositions of the present invention were tested for German cockroach activity in the following manner:
# as §4
# as §5, with “male German” for “male American”, “interior. German” for “interior. American”, “cockroach” for “cockroach knockdown and”, “mortality was” for “mortality were”
# American cockroach [2] = experiment: Example 14: American cockroach knockdown and mortality, bifenthrin and clothianidin; assay type: in vivo
# Source text: as §1, §3, §2, §5
# [3] = rate of appln. 10 PPM (0.001% by weight)
# [4] = rate of appln. 50 PPM (0.005% by weight)
structure (smiles),measurement,setting,value
"Cc1c(COC(=O)[C@@H]2[C@H](/C=C(\Cl)C(F)(F)F)C2(C)C)cccc1-c1ccccc1 (racemic) [A, 2-methylbiphenyl-3-ylmethyl (Z)-(1RS)-cis-3-(2-chloro-3,3,3-trifluoroprop-1-enyl)-2,2-dimethylcyclopropanecarboxylate]",Knockdown Rate @ 15 minute,House Flies; [3],0%
same,Knockdown Rate @ 30 minute,House Flies; [3],0%
same,Knockdown Rate @ 45 minutes,House Flies; [3],0%
same,Knockdown Rate @ 60 minutes,House Flies; [3],0%
same,Knockdown Rate @ 120 minutes,House Flies; [3],3%
same,Knockdown Rate @ 180 minutes,House Flies; [3],3%
same,Knockdown Rate @ 4 hours,House Flies; [3],3%
same,Mortality Rate @ 1 day,House Flies; [3],3%
same,Knockdown Rate @ 15 minute,House Flies; [4],3%
same,Knockdown Rate @ 30 minute,House Flies; [4],55%
same,Knockdown Rate @ 45 minutes,House Flies; [4],66%
same,Knockdown Rate @ 60 minutes,House Flies; [4],68%
same,Knockdown Rate @ 120 minutes,House Flies; [4],74%
same,Knockdown Rate @ 180 minutes,House Flies; [4],74%
same,Knockdown Rate @ 4 hours,House Flies; [4],76%
same,Mortality Rate @ 1 day,House Flies; [4],79%
same,Knockdown Rate @ 15 minute,"American cockroach [1]; 10 PPM, 0.001% by weight",0%
same,Knockdown Rate @ 30 minute,"American cockroach [1]; 10 PPM, 0.001% by weight",0%
same,Mortality Rate @ 60 minutes,"American cockroach [1]; 10 PPM, 0.001% by weight",0%
same,Mortality Rate @ 120 minutes,"American cockroach [1]; 10 PPM, 0.001% by weight",0%
same,Mortality Rate @ 4 hours,"American cockroach [1]; 10 PPM, 0.001% by weight",0%
same,Mortality Rate @ 1 day,"American cockroach [1]; 10 PPM, 0.001% by weight",5%
same,Knockdown Rate @ 15 minute,"American cockroach [1]; 50 PPM, 0.005% by weight",0%
same,Knockdown Rate @ 30 minute,"American cockroach [1]; 50 PPM, 0.005% by weight",0%
same,Mortality Rate @ 60 minutes,"American cockroach [1]; 50 PPM, 0.005% by weight",0%
same,Mortality Rate @ 120 minutes,"American cockroach [1]; 50 PPM, 0.005% by weight",0%
same,Mortality Rate @ 4 hours,"American cockroach [1]; 50 PPM, 0.005% by weight",0%
same,Mortality Rate @ 1 day,"American cockroach [1]; 50 PPM, 0.005% by weight",30%
same,Knockdown Rate @ 5 minute,Red Imported Fire Ant; [3],30%
same,Knockdown Rate @ 10 minute,Red Imported Fire Ant; [3],93%
same,Knockdown Rate @ 15 minute,Red Imported Fire Ant; [3],95%
same,Knockdown Rate @ 30 minutes,Red Imported Fire Ant; [3],100%
same,Mortality Rate @ 60 minutes,Red Imported Fire Ant; [3],65%
same,Mortality Rate @ 120 minutes,Red Imported Fire Ant; [3],100%
same,Mortality Rate @ 4 hours,Red Imported Fire Ant; [3],100%
same,Knockdown Rate @ 5 minute,Red Imported Fire Ant; [4],10%
same,Knockdown Rate @ 10 minute,Red Imported Fire Ant; [4],70%
same,Knockdown Rate @ 15 minute,Red Imported Fire Ant; [4],95%
same,Knockdown Rate @ 30 minutes,Red Imported Fire Ant; [4],100%
same,Mortality Rate @ 60 minutes,Red Imported Fire Ant; [4],100%
same,Mortality Rate @ 120 minutes,Red Imported Fire Ant; [4],100%
same,Mortality Rate @ 4 hours,Red Imported Fire Ant; [4],100%
same,Mortality Rate @ 60 minutes,"German cockroach; 10 PPM, 0.001% by weight",8%
same,Mortality Rate @ 120 minutes,"German cockroach; 10 PPM, 0.001% by weight",33%
same,Mortality Rate @ 1 day,"German cockroach; 10 PPM, 0.001% by weight",35%
same,Mortality Rate @ 2 day,"German cockroach; 10 PPM, 0.001% by weight",60%
same,Mortality Rate @ 4 days,"German cockroach; 10 PPM, 0.001% by weight",98%
same,Mortality Rate @ 60 minutes,"German cockroach; 50 PPM, 0.005% by weight",15%
same,Mortality Rate @ 120 minutes,"German cockroach; 50 PPM, 0.005% by weight",48%
same,Mortality Rate @ 1 day,"German cockroach; 50 PPM, 0.005% by weight",58%
same,Mortality Rate @ 2 day,"German cockroach; 50 PPM, 0.005% by weight",100%
same,Mortality Rate @ 4 days,"German cockroach; 50 PPM, 0.005% by weight",100%
same,Knockdown Rate @ 10 minute,American cockroach [2]; [3],0%
same,Knockdown Rate @ 15 minute,American cockroach [2]; [3],0%
same,Knockdown Rate @ 30 minute,American cockroach [2]; [3],0%
same,Mortality Rate @ 60 minute,American cockroach [2]; [3],0%
same,Mortality Rate @ 120 minutes,American cockroach [2]; [3],0%
same,Mortality Rate @ 4 hours,American cockroach [2]; [3],0%
same,Mortality Rate @ 1 day,American cockroach [2]; [3],10%
same,Mortality Rate @ 2 days,American cockroach [2]; [3],30%
same,Knockdown Rate @ 10 minute,American cockroach [2]; [4],5%
same,Knockdown Rate @ 15 minute,American cockroach [2]; [4],10%
same,Knockdown Rate @ 30 minute,American cockroach [2]; [4],5%
same,Mortality Rate @ 60 minute,American cockroach [2]; [4],0%
same,Mortality Rate @ 120 minutes,American cockroach [2]; [4],0%
same,Mortality Rate @ 4 hours,American cockroach [2]; [4],35%
same,Mortality Rate @ 1 day,American cockroach [2]; [4],40%
same,Mortality Rate @ 2 days,American cockroach [2]; [4],55%
